ChEMBL document CHEMBL1201862, “PubChem BioAssay data set” (2004)
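Each compound was tested at five concentrations against cells in 96-well plates for 48 hours. Abbreviation: GI50, concentration required for 50% inhibition of growth.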 Activity calls are given as the source filed them. Cut-off read from the data, not from the text of the source: active = GI50 up to about 1.1 µM and inactive = higher.

How the values were obtained:
Test in all cases: NCI-60 cell line screen, 48 h
A498 = system: A498
CCRF-CEM = system: CCRF-CEM
COLO 205 = system: COLO 205
HCT-15 = system: HCT-15
HOP-92 = system: HOP-92
KM12 = system: KM12
Malme-3M = system: Malme-3M
PC-3 = system: PC-3
SF-268 = system: SF-268
SF-539 = system: SF-539
SK-MEL-5 = system: SK-MEL-5
SK-OV-3 = system: SK-OV-3
SN12C = system: SN12C
T47D = system: T47D
TK-10 = system: TK-10
U-251 = system: U-251
UACC-257 = system: UACC-257
HL-60 = system: HL-60
M14 = system: M14
SK-MEL-28 = system: SK-MEL-28

Row | Structure (SMILES) | GI50 (A498) | GI50 (CCRF-CEM) | GI50 (COLO 205) | GI50 (HCT-15) | GI50 (HOP-92) | GI50 (KM12) | GI50 (Malme-3M) | GI50 (PC-3) | GI50 (SF-268) | GI50 (SF-539) | GI50 (SK-MEL-5) | GI50 (SK-OV-3) | GI50 (SN12C) | GI50 (T47D) | GI50 (TK-10) | GI50 (U-251) | GI50 (UACC-257) | GI50 (HL-60) | GI50 (M14) | GI50 (SK-MEL-28)
1 | CC(C)OC(=O)[C@@H]1OC(C)(C)O[C@H]1C(=O)OC(C)C | > 100 µM (inactive) | > 100 µM (inactive) | > 100 µM (inactive) | > 100 µM | > 100 µM (inactive) | > 100 µM (inactive) | > 100 µM (inactive) | > 100 µM (inactive) | > 100 µM (inactive) | > 100 µM (inactive) | > 100 µM (inactive) | > 100 µM (inactive) | > 100 µM (inactive) | > 100 µM (inactive) | > 100 µM (inactive) | > 100 µM (inactive) | > 100 µM (inactive) |  |  | 
2 | COc1ccc2[nH]c3c(C)c4ncccc4c(C)c3c2c1 |  | 3.85 µM (inactive) | 6.95 µM (inactive) | 2.99 µM | 8.34 µM (inactive) | 1.93 µM (inactive) | 1.65 µM (inactive) | 6.11 µM (inactive) | > 10 µM (inactive) | 4.73 µM (inactive) | > 10 µM (inactive) | > 10 µM (inactive) | 4.78 µM (inactive) | > 10 µM (inactive) | > 10 µM (inactive) | 8.43 µM (inactive) | > 10 µM (inactive) | 3.01 µM (inactive) | 1.64 µM (inactive) | 1.99 µM (inactive)
3 | O=C1C2=Cc3ccccc3OC2(O)Oc2cc(O)ccc21 (configuration not stated) | > 100 µM (inactive) | 27.5 µM (inactive) | > 100 µM (inactive) | 97.7 µM | > 100 µM (inactive) | > 100 µM (inactive) | > 100 µM (inactive) | > 100 µM (inactive) | > 100 µM (inactive) | > 100 µM (inactive) | > 100 µM (inactive) | > 100 µM (inactive) | > 100 µM (inactive) | > 100 µM (inactive) | > 100 µM (inactive) | > 100 µM (inactive) | > 100 µM (inactive) |  | > 100 µM (inactive) | > 100 µM (inactive)
4 | O=C(/C=C/c1ccc(O)c(O)c1)NC(COC(=O)/C=C/c1ccc(O)c(O)c1)C(=O)O (configuration not stated) | > 100 µM (inactive) | 37.8 µM (inactive) | > 100 µM (inactive) | > 100 µM | > 100 µM (inactive) | > 100 µM (inactive) | > 100 µM (inactive) | > 100 µM (inactive) | > 100 µM (inactive) | > 100 µM (inactive) | > 100 µM (inactive) | > 100 µM (inactive) | > 100 µM (inactive) | > 100 µM (inactive) | > 100 µM (inactive) | > 100 µM (inactive) | > 100 µM (inactive) |  | > 100 µM (inactive) | > 100 µM (inactive)
5 | CCOP(=O)(/C=C\n1ccc(N)nc1=O)OCC |  | > 100 µM (inactive) | > 100 µM (inactive) | > 100 µM |  | > 100 µM (inactive) |  | > 100 µM (inactive) | > 100 µM (inactive) | > 100 µM (inactive) | > 100 µM (inactive) | > 100 µM (inactive) | > 100 µM (inactive) | > 100 µM (inactive) | > 100 µM (inactive) | > 100 µM (inactive) | > 100 µM (inactive) | > 100 µM (inactive) | > 100 µM (inactive) | > 100 µM (inactive)
6 | COc1ccc2c(Cl)cc(NC(=S)Nc3ccccc3)nc2c1 | 21.1 µM (inactive) | < 0.01 µM (active) | 31.2 µM (inactive) | 27.9 µM | 21.8 µM (inactive) | 18.7 µM (inactive) | 15.2 µM (inactive) | 28.6 µM (inactive) | 24.8 µM (inactive) | 32.6 µM (inactive) | 33.6 µM (inactive) | 26 µM (inactive) | 33.3 µM (inactive) | 14.5 µM (inactive) | 57.7 µM (inactive) | 20 µM (inactive) | 60.8 µM (inactive) |  | 18.3 µM (inactive) | 33.6 µM (inactive)
7 | O=C1/C(=N/c2ccccc2)Oc2cc(O)ccc21 | > 100 µM (inactive) | > 100 µM (inactive) | > 100 µM (inactive) | > 100 µM |  | > 100 µM (inactive) | > 100 µM (inactive) | > 100 µM (inactive) | > 100 µM (inactive) | > 100 µM (inactive) | > 100 µM (inactive) | > 100 µM (inactive) | > 100 µM (inactive) | > 100 µM (inactive) | > 100 µM (inactive) | > 100 µM (inactive) | > 100 µM (inactive) |  | > 100 µM (inactive) | > 100 µM (inactive)
8 | COC(=O)CCC(=O)c1ccc2c(c1)CC1(Cc3ccccc3C1)C2 | 48.6 µM (inactive) | 16.4 µM (inactive) | 29.4 µM (inactive) |  | 31.3 µM (inactive) | > 100 µM (inactive) | 80.5 µM (inactive) | 41 µM (inactive) |  | > 100 µM (inactive) | 16.2 µM (inactive) | > 100 µM (inactive) | 82.6 µM (inactive) | 39.1 µM (inactive) | 78.7 µM (inactive) | 58.7 µM (inactive) | 24.3 µM (inactive) |  | > 100 µM (inactive) | 
9 | CCn1c(-c2ccc(OC)cc2)nc2c1C(=O)c1ccccc1C2=O |  | > 100 µM (inactive) | > 100 µM (inactive) | > 100 µM | > 100 µM (inactive) | > 100 µM (inactive) | > 100 µM (inactive) | > 100 µM (inactive) | > 100 µM (inactive) | > 100 µM (inactive) | > 100 µM (inactive) | > 100 µM (inactive) | > 100 µM (inactive) | > 100 µM (inactive) | > 100 µM (inactive) | > 100 µM (inactive) | > 100 µM (inactive) | > 100 µM (inactive) | > 100 µM (inactive) | > 100 µM (inactive)
10 | CC(=O)OCC1=C(C)C(OC(=O)C(OC(C)=O)[C@@H](NC(=O)c2ccccc2)c2ccccc2)CCC1(C)C (some centres not stated) | > 100 µM (inactive) | > 100 µM (inactive) | > 100 µM (inactive) | > 100 µM |  | > 100 µM (inactive) | > 100 µM (inactive) |  | > 100 µM (inactive) | > 100 µM (inactive) | > 100 µM (inactive) | > 100 µM (inactive) | > 100 µM (inactive) | > 100 µM (inactive) | > 100 µM (inactive) | > 100 µM (inactive) | > 100 µM (inactive) | > 100 µM (inactive) |  | > 100 µM (inactive)
11 | Cc1ccc(Cl)c2[nH]c(-c3ccccc3)cc(=O)c12 | 25.6 µM (inactive) | 38.5 µM (inactive) | 40.9 µM (inactive) | 39.2 µM |  | 21.4 µM (inactive) | > 100 µM (inactive) | 23.3 µM (inactive) | 14.8 µM (inactive) |  | 15.8 µM (inactive) | > 100 µM (inactive) | 46.5 µM (inactive) | 11.5 µM (inactive) | 47.2 µM (inactive) | 77.8 µM (inactive) | 40.9 µM (inactive) | 23 µM (inactive) | 39.8 µM (inactive) | 39.7 µM (inactive)
12 | Nc1ncnc2c1ncn2[C@@H]1C[C@H](NO)[C@@H](O)[C@H]1O | > 100 µM (inactive) | 22.3 µM (inactive) | > 100 µM (inactive) | 16.4 µM | > 100 µM (inactive) | 9.25 µM (inactive) | > 100 µM (inactive) | > 100 µM (inactive) | > 100 µM (inactive) | 33.5 µM (inactive) | > 100 µM (inactive) | > 100 µM (inactive) | > 100 µM (inactive) | > 100 µM (inactive) | > 100 µM (inactive) | > 100 µM (inactive) | > 100 µM (inactive) |  | > 100 µM (inactive) | > 100 µM (inactive)
13 | O=C(O)Cc1cccnc1 | > 100 µM (inactive) | > 100 µM (inactive) | > 100 µM (inactive) | > 100 µM | > 100 µM (inactive) | > 100 µM (inactive) | > 100 µM (inactive) | > 100 µM (inactive) | > 100 µM (inactive) | > 100 µM (inactive) | > 100 µM (inactive) | > 100 µM (inactive) | > 100 µM (inactive) | > 100 µM (inactive) | > 100 µM (inactive) | > 100 µM (inactive) | > 100 µM (inactive) |  | > 100 µM (inactive) | > 100 µM (inactive)
14 | CC1(C)CC2C=C(C=O)C3(C=O)CC3(C)C2C1 (configuration not stated) |  | 0.0468 µM (active) | 1.89 µM (inactive) | 1.64 µM | 1.95 µM (inactive) | 4.39 µM (inactive) |  | 1.12 µM (active) | 3.88 µM (inactive) | 1.95 µM (inactive) | 1.64 µM (inactive) | 3.43 µM (inactive) | 2.54 µM (inactive) | 1.33 µM (inactive) | 2.39 µM (inactive) | 1.79 µM (inactive) | 2.38 µM (inactive) | 0.0333 µM (active) | 2.29 µM (inactive) | 2.06 µM (inactive)
15 | Cc1nc2ccc(C(F)(F)F)cc2nc1NCc1ccc(Cl)c(Cl)c1 |  | 15.5 µM (inactive) | 15.4 µM (inactive) | 12.7 µM |  | 14.2 µM (inactive) | 17.2 µM (inactive) | 12.9 µM (inactive) | 16 µM (inactive) | 17.5 µM (inactive) | 19.6 µM (inactive) |  | 17.2 µM (inactive) | 0.735 µM (active) | < 0.01 µM (active) | 16.5 µM (inactive) | 15.9 µM (inactive) | 16.7 µM (inactive) |  | 18.4 µM (inactive)
16 | CC(NC(=N)N)C(=O)O (configuration not stated) | > 100 µM (inactive) | > 100 µM (inactive) | > 100 µM (inactive) | > 100 µM |  | > 100 µM (inactive) | > 100 µM (inactive) | > 100 µM (inactive) | > 100 µM (inactive) |  | > 100 µM (inactive) | > 100 µM (inactive) | > 100 µM (inactive) | > 100 µM (inactive) | > 100 µM (inactive) | > 100 µM (inactive) | > 100 µM (inactive) |  | > 100 µM (inactive) | > 100 µM (inactive)
